The CheMixHub viscosity set
± gives the uncertainty stated by the source.

Test: xn = mol fraction of the nth substance listed

Cc1ccccc1 + CO
Settings	viscosity [mPa·s]
293.15 K, 101 kPa, x1 = 0.0405	0.5903 ± 0.015
293.15 K, 101 kPa, x1 = 0.0868	0.5951 ± 0.015
293.15 K, 101 kPa, x1 = 0.1401	0.6009 ± 0.016
293.15 K, 101 kPa, x1 = 0.2022	0.6067 ± 0.016
293.15 K, 101 kPa, x1 = 0.2755	0.6121 ± 0.016
293.15 K, 101 kPa, x1 = 0.3632	0.6167 ± 0.016
293.15 K, 101 kPa, x1 = 0.4701	0.6194 ± 0.016
293.15 K, 101 kPa, x1 = 0.6033	0.6184 ± 0.016
293.15 K, 101 kPa, x1 = 0.7739	0.6098 ± 0.016
293.15 K, 101 kPa, x2 = 0.2	0.582 ± 0.012
293.15 K, 101 kPa, x2 = 0.4	0.601 ± 0.012
293.15 K, 101 kPa, x2 = 0.6	0.62 ± 0.012
293.15 K, 101 kPa, x2 = 0.8	0.623 ± 0.012
293.16 K, 101 kPa, x2 = 0.7465	0.6073 ± 0.016
293.16 K, 101 kPa, x2 = 0.8178	0.6149 ± 0.016
293.16 K, 101 kPa, x2 = 0.9632	0.6049 ± 0.016
298.15 K, 101 kPa, x1 = 0.0405	0.552 ± 0.014
298.15 K, 101 kPa, x1 = 0.0868	0.5572 ± 0.015
298.15 K, 101 kPa, x1 = 0.1401	0.5628 ± 0.015
298.15 K, 101 kPa, x1 = 0.2022	0.5679 ± 0.015
298.15 K, 101 kPa, x1 = 0.2755	0.573 ± 0.015
298.15 K, 101 kPa, x1 = 0.3632	0.5779 ± 0.015
298.15 K, 101 kPa, x1 = 0.4701	0.5803 ± 0.015
298.15 K, 101 kPa, x1 = 0.6033	0.5796 ± 0.015
298.15 K, 101 kPa, x1 = 0.7739	0.5809 ± 0.015
298.15 K, 101 kPa, x2 = 0.0499	0.551 ± 0.01
298.15 K, 101 kPa, x2 = 0.0998	0.547 ± 0.01
298.15 K, 101 kPa, x2 = 0.1993	0.54 ± 0.01
298.15 K, 101 kPa, x2 = 0.2269	0.5998 ± 0.0056
298.15 K, 101 kPa, x2 = 0.2998	0.541 ± 0.01
298.15 K, 101 kPa, x2 = 0.3977	0.6168 ± 0.0058
298.15 K, 101 kPa, x2 = 0.4007	0.55 ± 0.01
298.15 K, 101 kPa, x2 = 0.4998	0.557 ± 0.01
298.15 K, 101 kPa, x2 = 0.5309	0.6284 ± 0.0059
298.15 K, 101 kPa, x2 = 0.6002	0.562 ± 0.01
298.15 K, 101 kPa, x2 = 0.6377	0.6259 ± 0.0059
298.15 K, 101 kPa, x2 = 0.7	0.572 ± 0.01
298.15 K, 101 kPa, x2 = 0.7252	0.6143 ± 0.0058
298.15 K, 101 kPa, x2 = 0.7983	0.599 ± 0.0057
298.15 K, 101 kPa, x2 = 0.8	0.569 ± 0.01
298.15 K, 101 kPa, x2 = 0.8606	0.5847 ± 0.0056
298.15 K, 101 kPa, x2 = 0.9	0.561 ± 0.01
298.15 K, 101 kPa, x2 = 0.9136	0.5831 ± 0.0056
298.15 K, 101 kPa, x2 = 0.9501	0.555 ± 0.01
298.15 K, 101 kPa, x2 = 0.9597	0.5642 ± 0.0054
298.16 K, 101 kPa, x2 = 0.4032	0.5406 ± 0.014
298.16 K, 101 kPa, x2 = 0.7442	0.5644 ± 0.015
298.16 K, 101 kPa, x2 = 0.9625	0.5599 ± 0.015
303 K, 101 kPa, x1 = 0.1006	0.549
303 K, 101 kPa, x1 = 0.2012	0.599
303 K, 101 kPa, x1 = 0.3009	0.585
303 K, 101 kPa, x1 = 0.3981	0.578
303 K, 101 kPa, x1 = 0.5016	0.573
303 K, 101 kPa, x1 = 0.6052	0.566
303 K, 101 kPa, x1 = 0.7001	0.562
303 K, 101 kPa, x1 = 0.8095	0.559
303 K, 101 kPa, x1 = 0.9011	0.537
303.15 K, 101.33 kPa, x1 = 0.0724	0.588 ± 0.016
303.15 K, 101.33 kPa, x1 = 0.0912	0.531 ± 0.01
303.15 K, 101.33 kPa, x1 = 0.1636	0.588 ± 0.016
303.15 K, 101.33 kPa, x1 = 0.2105	0.539 ± 0.01
303.15 K, 101.33 kPa, x1 = 0.2773	0.542 ± 0.01
303.15 K, 101.33 kPa, x1 = 0.3517	0.569 ± 0.015
303.15 K, 101.33 kPa, x1 = 0.3723	0.54 ± 0.01
303.15 K, 101.33 kPa, x1 = 0.4963	0.529 ± 0.01
303.15 K, 101.33 kPa, x1 = 0.5095	0.544 ± 0.014
303.15 K, 101.33 kPa, x1 = 0.6126	0.539 ± 0.014
303.15 K, 101.33 kPa, x1 = 0.6944	0.515 ± 0.01
303.15 K, 101.33 kPa, x1 = 0.7321	0.532 ± 0.014
303.15 K, 101.33 kPa, x1 = 0.8307	0.513 ± 0.01
303.15 K, 101.33 kPa, x1 = 0.8541	0.527 ± 0.014
303.15 K, 101.33 kPa, x1 = 0.888	0.516 ± 0.01
303.15 K, 101.33 kPa, x1 = 0.9511	0.52 ± 0.01
308.15 K, 101 kPa, x1 = 0.0405	0.4855 ± 0.013
308.15 K, 101 kPa, x1 = 0.0868	0.4908 ± 0.013
308.15 K, 101 kPa, x1 = 0.1401	0.4965 ± 0.013
308.15 K, 101 kPa, x1 = 0.2022	0.5022 ± 0.013
308.15 K, 101 kPa, x1 = 0.2755	0.5079 ± 0.013
308.15 K, 101 kPa, x1 = 0.3632	0.5132 ± 0.013
308.15 K, 101 kPa, x1 = 0.4701	0.517 ± 0.013
308.15 K, 101 kPa, x1 = 0.6033	0.5188 ± 0.013
308.15 K, 101 kPa, x1 = 0.7739	0.5021 ± 0.013
308.15 K, 101.33 kPa, x1 = 0.0912	0.495 ± 0.007
308.15 K, 101.33 kPa, x1 = 0.2105	0.502 ± 0.007
308.15 K, 101.33 kPa, x1 = 0.2773	0.504 ± 0.007
308.15 K, 101.33 kPa, x1 = 0.3723	0.502 ± 0.007
308.15 K, 101.33 kPa, x1 = 0.4963	0.494 ± 0.007
308.15 K, 101.33 kPa, x1 = 0.6944	0.482 ± 0.007
308.15 K, 101.33 kPa, x1 = 0.8307	0.481 ± 0.007
308.15 K, 101.33 kPa, x1 = 0.888	0.483 ± 0.007
308.15 K, 101.33 kPa, x1 = 0.9511	0.488 ± 0.007
313.15 K, 101.33 kPa, x1 = 0.0724	0.5 ± 0.013
313.15 K, 101.33 kPa, x1 = 0.1636	0.503 ± 0.013
313.15 K, 101.33 kPa, x1 = 0.3517	0.487 ± 0.013
313.15 K, 101.33 kPa, x1 = 0.5095	0.485 ± 0.013
313.15 K, 101.33 kPa, x1 = 0.6126	0.48 ± 0.013
313.15 K, 101.33 kPa, x1 = 0.7321	0.475 ± 0.013
313.15 K, 101.33 kPa, x1 = 0.8541	0.464 ± 0.012
318.15 K, 101 kPa, x1 = 0.0405	0.4298 ± 0.011
318.15 K, 101 kPa, x1 = 0.0868	0.4372 ± 0.011
318.15 K, 101 kPa, x1 = 0.1401	0.4452 ± 0.012
318.15 K, 101 kPa, x1 = 0.2022	0.4538 ± 0.012
318.15 K, 101 kPa, x1 = 0.2755	0.4629 ± 0.012
318.15 K, 101 kPa, x1 = 0.3632	0.4726 ± 0.012
318.15 K, 101 kPa, x1 = 0.4701	0.4817 ± 0.013
318.15 K, 101 kPa, x1 = 0.6033	0.4892 ± 0.013
318.15 K, 101 kPa, x1 = 0.7739	0.4809 ± 0.012
323.15 K, 101.33 kPa, x1 = 0.0724	0.433 ± 0.012
323.15 K, 101.33 kPa, x1 = 0.1636	0.441 ± 0.012
323.15 K, 101.33 kPa, x1 = 0.3517	0.407 ± 0.011
323.15 K, 101.33 kPa, x1 = 0.5095	0.42 ± 0.011
323.15 K, 101.33 kPa, x1 = 0.6126	0.413 ± 0.011
323.15 K, 101.33 kPa, x1 = 0.7321	0.41 ± 0.011
323.15 K, 101.33 kPa, x1 = 0.8541	0.408 ± 0.011
